The subject of the assay is diabetischer Ratten. Briefly: Alloxan-induced diabetes mellitus in rats: prevention of lens and arterial wall calcinosis. Type of assay: in vivo, Wistar-Ratten. To be noted: for durch Calcinose von Gefäßwänden verursachte Arterienveränderungen verhindern: attempts with other calcium antagonists, no dose or model details printed. As for the experimental part: Gemäß der Erfindung wird es zum ersten Mal möglich, die Krankheiten vorbeugend bei Warmblütern mit Erfolg medikamentös zu behandeln, wie folgende Versuche zeigen: • Wistar-Ratten im Alter von 2 Monaten erhielten zur Erzeugung eines Diabetes mellitus intravenös 80 mg/kg Alloxan. Nach Zerstörung der Insulin-produzierenden ß-Zellen im Pancreas stieg der Blutzuckerwert bei den Tieren von 100 mg% auf etwa 420 mg%. Dieser Wert blieb während einer Beobachtungszeit von 6 1/2 Monaten praktisch konstant. Während der Beobachtungszeit erhielt ein Teil der Tiere täglich 25 mg/kg Verapamilhydrochlorid mit einer Schlucksonde. Bei den nicht mit Verapamil behandelten Tieren kam es in dieser Zeit bei 63 % der Tiere zu einem völligen Verlust der Transparenz der Augenlinse, während sich bei den behandelten Tieren nur in 4 % der Fälle ein Katarakt bildete.
Ohne Verapamil stieg der Calcium-Gehalt der Linse diabetischer Ratten vom Normalwert nicht-diabetischer Kontrolltiere (= 1,08 (i 0,02)) auf 10,89 (± 0,85) mmol/kg Trockengewicht an. Dagegen verblieb mit Verapamil der mittlere Calcium-Gehalt der Linsen diabetischer Tiere in dem niedrigeren Bereich von 3,46 (± 0,61) mmol/kg Trockengewicht.
-Mit der Verhinderung des Calcium-Anstiegs in den Arterien--Wänden wurden auch die elektronen-optisch - hauptsächlich in der Media - nachweisbaren degenerativen Prozesse verhütet.

Structures are written as SMILES.

Regarding `COc1ccc(CCN(C)CCCC(C#N)(c2cc(OC)c(OC)c(OC)c2)C(C)C)cc1OC` (stereo not drawn) [Gallopamil, α-ISOpropyl-α-[(N-methyl-N-homoveratryl)--α-aminopropyl]-3,4,5-trimethoxyphenylacetonitril], for the setting “general statement that corresponding results can be obtained, no data or dose printed”, the “Verhütung der diabetischen Linsen-Calcinose und des Calcium-Anstiegs in den Arterien-Wänden” value is “Entsprechende Ergebnisse”. Consider `COC(=O)C1=C(C)NC(C)=C(C(=O)OC)C1c1ccccc1[N+](=O)[O-]` [Nifedipin], for which the “durch Calcinose von Gefäßwänden verursachte Arterienveränderungen verhindern” value is given as “erfolglos”. For `CCCOCCOC(=O)C1=C(C)NC(C)=C(C(=O)OCCOCCC)C1c1cccc([N+](=O)[O-])c1` [Niludipin], the “durch Calcinose von Gefäßwänden verursachte Arterienveränderungen verhindern” value was “erfolglos”. `COc1ccc(CCN(C)CCCC(C#N)(c2ccc(OC)c(OC)c2)C(C)C)cc1OC` (stereo not drawn) [Verapamil, α-Isopropyl-α-[(N-methyl-N-homoveratryl)--α-aminopropyl]-3,4-dimethoxyphenylacetonitril]: the “Katarakt (völliger Verlust der Transparenz der Augenlinse), Anteil der Tiere” value (alloxan-diabetic Wistar rats (80 mg/kg Alloxan i.v.), 25 mg/kg daily by gavage, observation 6 1/2 months, untreated diabetic animals 63 %) came out at 4%. Besides, for the setting “alloxan-diabetic rats, 25 mg/kg daily p.o., 6 1/2 months, untreated diabetic 10,89 (± 0,85), non-diabetic controls 1,08”, the “mittlerer Calcium-Gehalt der Linsen diabetischer Tiere” value is given as 3,46 (± 0,61) mmol/kg Trockengewicht. Where the note is “arterial walls of the same treated diabetic rats, electron microscopy”, the “elektronen-optisch - hauptsächlich in der Media - nachweisbare degenerative Prozesse” value is on record as “verhütet”. Also, the “abnormer Anstieg der Calcium-Werte in der Wand der Aorta und der Arteria mesenterica superior (Darmarterie)” value (same alloxan-diabetic rats, 25 mg/kg daily p.o., 6 1/2 months) is “verhindert”.

The record behind these values is EP0075823A2, “Use of basically substituted phenylacetonitriles in the prophylactic treatment of illnesses” (KNOLL AG, priority 1981, dated 1983).
